Series [1] deals with Staphylococcus aureus Tour. The experiment in a line: antibacterial activity in mice infected with Staphylococcus aureus Tour. It counts as in vivo. Particulars: sc, values in parentheses as printed, read-out: ED50 against S. aureus Tour. The protocol:
As expected, this slight delay in hydrolysis in vivo reflects in a median effective dose (ED50) for the compounds of formula I somewhat higher than for rifampicin. In particular the antibacterial activity of the compounds of the present invention was tested in mice infected with Staphylococcus aureus Tour.

Series [2] can be described thus: solubility in water containing 2% ascorbic acid (solution A) and in water containing 2% ascorbic acid and 10% propylene glycol (solution B), with pH of the resulting solutions. It counts as physicochemical. The protocol: The compounds of the present invention show a marked solubility in water as well as in mixtures of water with other pharmaceutically acceptable solvents miscible with water. In particular, the solubility of the compounds of the present invention in comparison with rifampicin was assayed in water containing 2% ascorbic acid (solution A) and in water containing 2% ascorbic acid and 10% propylene glycol (solution B) and the pH of the resulting solutions was recorded.

For series [3] the following is noted: cited from earlier work.
The mark [4] stands for this setting: solution A: water containing 2% ascorbic acid.
Setting [5] is: water with 2% ascorbic acid, solution A: water containing 2% ascorbic acid, read-out: solubility.

Each structure is given as a SMILES string. ≈ marks a conversion by molar mass, not a printed value. Read-outs that look alike come from different tables or passages of the source.

As to `CCC(=O)Oc1c(C)c2c3c4c(O)c(/C=N/N5CCN(C)CC5)c(c(O)c14)NC(=O)/C(C)=C\C=C\[C@H](C)[C@H](O)[C@@H](C)[C@@H](O)[C@@H](C)[C@H](OC(C)=O)[C@H](C)[C@@H](OC)/C=C/O[C@@](C)(O2)C3=O` [Example 5, 3-[[(4-methyl-1-piperazinyl)imino]methyl]rifamycin 8-pro-panoate], the 50% effective dose (ED50) in series [1] amounted to 1.2 mg/kg.

`CCOC(=O)Oc1c(C)c2c3c4c(O)c(/C=N/N5CCN(C)CC5)c(c(O)c14)NC(=O)/C(C)=C\C=C\[C@H](C)[C@H](O)[C@@H](C)[C@@H](O)[C@@H](C)[C@H](OC(C)=O)[C@H](C)[C@@H](OC)/C=C/O[C@@](C)(O2)C3=O` [Example 6, 3-[[(4-methyl-1-piperazinyl)imino]methyl]rifamycin 8-ethylcarbonate]: in series [1], the median effective dose (ED50) stood at 0.76 mg/kg.

Consider `CO[C@H]1/C=C/O[C@@]2(C)Oc3c(C)c(O)c4c(O)c(c(/C=N/N5CCN(C)CC5)c(O)c4c3C2=O)NC(=O)/C(C)=C\C=C\[C@H](C)[C@H](O)[C@@H](C)[C@@H](O)[C@@H](C)[C@H](OC(C)=O)[C@@H]1C` [rifampicin, 3-[[(4-methyl-1-piperazinyl)imino]methyl]rifamycin], for which the “pH of the resulting solution” value in series [2] (in either solution (A or B)) is reported as 3.5-3.6. Further, in series [2] (water with 2% ascorbic acid), the solubility was below 50 mg/mL. Also, in series [3], the “solubility in various aqueous media” value was “lower than 20 mg/ml”.

On to `CO[C@H]1/C=C/O[C@@]2(C)Oc3c(C)c(OC(C)=O)c4c(O)c(c(/C=N/N5CCN(C)CC5)c(OC(C)=O)c4c3C2=O)NC(=O)/C(C)=C\C=C\[C@H](C)[C@H](O)[C@@H](C)[C@@H](O)[C@@H](C)[C@H](OC(C)=O)[C@@H]1C` [Example 7], for which the “pH of the resulting solution” value in series [2] (setting [4]) turned out to be 4.5. In series [2] (setting [5]), the solubility was above 300 mg/mL. For the same compound, the ED50 in series [1] was found to be 1.5 mg/kg.

For `CO[C@H]1/C=C/O[C@@]2(C)Oc3c(C)c(OC(C)=O)c4c(O)c(c(/C=N/N5CCN(C)CC5)c(O)c4c3C2=O)NC(=O)/C(C)=C\C=C\[C@H](C)[C@H](O)[C@@H](C)[C@@H](O)[C@@H](C)[C@H](OC(C)=O)[C@@H]1C` [Example 4, 3-[[(4-methyl-1-piperazinyl)imino]methyl]rifamycin 8-acetate], the solubility in series [2] (organic solvent or mixture, solution B: water containing 2% ascorbic acid and 10% propylene glycol, read-out: solubility) was determined as 150 mg/mL (≈ 173 mM); in series [2] (setting [5]), 100 mg/mL (≈ 116 mM). In addition, the “pH of the resulting solution” value worked out at 4.0 in series [2] (setting [4]); 4.2 in series [2] (solution B: water containing 2% ascorbic acid and 10% propylene glycol). The ED50 in series [1] is 0.35 mg/kg.

Broadly, the ED50 is the dose that gives a 50% effect, or the effect in half of the subjects. As usually defined, the solubility is the dissolved amount per volume that the medium holds.

These data come from patent US4585589A, “Water-soluble alkanoyloxy and alkoxycarbonyloxy rifampicin derivatives, process for its preparation, intermediates, and its pharmaceutical composition as antibacterials” (Gruppo Lepetit S.p.A., priority 1983, dated 1986).
